Experiment: excess molar enthalpy (molar enthalpy of mixing); xn = mol fraction of the nth substance listed
Details: 101.3 kPa, Liquid, Isothermal microcalorimeter

CCOC(=O)CC(=O)OCC [diethyl 1,3-propanedioate] + CC(C)CO
excess molar enthalpy [kcal/mol]
Details	288.15 K	298.15 K	313.15 K	328.15 K	338.15 K	348.15 K
x1 = 0.0502	0.146	0.146	0.165	0.168	0.166	0.159
x1 = 0.0983	0.252	0.265	0.293	0.3	0.298	0.296
x1 = 0.1494	0.3339	0.3583	0.396	0.4001	0.4065	0.4054
x1 = 0.2006	0.4018	0.4238	0.4785	0.4986	0.4993	0.4947
x1 = 0.2484	0.4517	0.4907	0.5428	0.5531	0.5588	0.5578
x1 = 0.2989	0.4924	0.537	0.588	0.613	0.6095	0.6121
x1 = 0.3486	0.5217	0.5636	0.6226	0.6508	0.6477	0.6456
x1 = 0.3972	0.5413	0.5887	0.6475	0.662	0.6687	0.6649
x1 = 0.4484	0.5531	0.5985	0.6542	0.6752	0.674	0.6721
x1 = 0.4981	0.5598	0.6076	0.6513	0.6718	0.6699	0.6654
x1 = 0.5504	0.5535	0.5951	0.6367	0.6546	0.6537	0.6451
x1 = 0.6006	0.533	0.5739	0.6142	0.6224	0.6178	0.6171
x1 = 0.6485	0.5103	0.5473	0.5801	0.5863	0.5829	0.5772
x1 = 0.6985	0.4761	0.5029	0.538	0.5354	0.5261	0.5272
x1 = 0.7508	0.4223	0.4558	0.4775	0.4711	0.4606	0.4622
x1 = 0.8	0.3659	0.3905	0.4065	0.3972	0.3881	0.3846
x1 = 0.8514	0.295	0.31	0.3246	0.3131	0.304	0.297
x1 = 0.899	0.2	0.218	0.236	0.216	0.224	0.211
x1 = 0.9485	0.115	0.111	0.133	0.119	0.124	0.116

CCOC(=O)CC(=O)OCC [diethyl 1,3-propanedioate] + CCCCCCC
excess molar enthalpy [kcal/mol]
Details	288.15 K	298.15 K	313.15 K	328.15 K	338.15 K	348.15 K
x1 = 0.0503	–	–	–	0.0896	0.0877	0.0903
x1 = 0.0581	0.105	0.1	0.103	–	–	–
x1 = 0.1008	–	0.171	0.171	0.179	0.174	0.174
x1 = 0.1086	0.179	–	–	–	–	–
x1 = 0.1476	0.2254	0.232	0.238	0.2433	0.247	0.2424
x1 = 0.1984	0.2751	0.2921	0.3059	0.3133	0.3143	0.3074
x1 = 0.2495	0.3131	0.348	0.3619	0.3748	0.37	0.3647
x1 = 0.3007	0.3537	0.3867	0.413	0.4221	0.4283	0.4125
x1 = 0.3481	0.3659	0.4142	0.4436	0.4587	0.4529	0.4517
x1 = 0.3997	0.3786	0.4269	0.4622	0.4828	0.4842	0.4742
x1 = 0.4474	0.381	0.4338	0.4689	0.4883	0.4943	0.4876
x1 = 0.4993	0.3826	0.4348	0.472	0.4897	0.4971	0.4912
x1 = 0.5474	0.3815	0.4326	0.4656	0.4837	0.4909	0.4811
x1 = 0.5997	0.3755	0.4202	0.4515	0.467	0.478	0.4622
x1 = 0.6481	0.3626	0.4054	0.4331	0.4431	0.4503	0.4398
x1 = 0.7008	0.3466	0.374	0.3991	0.4128	0.4149	0.3999
x1 = 0.7495	0.3231	0.3446	0.3576	0.3693	0.3678	0.3609
x1 = 0.7985	0.2868	0.3002	0.3011	0.3222	0.3181	0.3105
x1 = 0.8476	0.237	0.2443	0.2459	0.254	0.257	0.246
x1 = 0.9009	0.167	0.167	0.165	0.18	0.178	0.17
x1 = 0.9504	0.0887	0.0891	0.0887	0.104	0.0939	0.0875

CCOC(=O)CC(=O)OCC [diethyl 1,3-propanedioate] + CCCCCO
excess molar enthalpy [kcal/mol]
Details	288.15 K	298.15 K	313.15 K	328.15 K	338.15 K	348.15 K
x1 = 0.0494	–	0.146	–	–	–	–
x1 = 0.0583	0.153	–	0.179	0.171	0.185	0.195
x1 = 0.1007	0.235	0.258	0.282	0.292	0.294	0.301
x1 = 0.1478	0.31	0.338	0.387	0.391	0.3934	0.3987
x1 = 0.2	0.3731	0.4132	0.4584	0.4859	0.4897	0.49
x1 = 0.2474	0.4204	0.4646	0.5196	0.5471	0.5504	0.5566
x1 = 0.3001	0.4622	0.5153	0.5793	0.6047	0.6154	0.6068
x1 = 0.3474	0.4885	0.5428	0.6142	0.6424	0.6482	0.6441
x1 = 0.4003	0.512	0.5712	0.6389	0.6666	0.6707	0.6764
x1 = 0.4472	0.5203	0.5844	0.6465	0.6793	0.68	0.6816
x1 = 0.4997	0.5284	0.5896	0.6467	0.6819	0.6826	0.6781
x1 = 0.55	0.528	0.5815	0.6405	0.669	0.6692	0.6656
x1 = 0.5975	0.516	0.5674	0.6209	0.6456	0.6439	0.6405
x1 = 0.6466	0.4945	0.543	0.5906	0.6121	0.5973	0.5992
x1 = 0.6973	0.4653	0.5067	0.5447	0.5609	0.5569	0.5497
x1 = 0.7497	0.4199	0.4572	0.4857	0.4974	0.4919	0.4826
x1 = 0.7988	0.3709	0.3982	0.4185	0.4235	0.4218	0.407
x1 = 0.8494	0.3	0.3198	0.332	0.334	0.331	0.315
x1 = 0.9017	0.212	0.223	0.226	0.232	0.224	0.217
x1 = 0.9501	0.11	0.12	0.121	0.121	0.114	0.109

CCOC(=O)CC(=O)OCC [diethyl 1,3-propanedioate] + CCCCO
excess molar enthalpy [kcal/mol]
Details	288.15 K	298.15 K	313.15 K	328.15 K	338.15 K	348.15 K
x1 = 0.0498	0.123	0.133	0.146	0.153	0.156	0.152
x1 = 0.1085	0.239	0.254	0.285	–	0.308	0.308
x1 = 0.1482	0.2978	0.3164	0.354	0.3676	0.3853	0.3956
x1 = 0.1991	0.3619	0.3858	0.4369	0.4627	0.472	0.4723
x1 = 0.2499	0.4099	0.4383	0.4947	0.5249	0.533	0.5418
x1 = 0.3003	0.4496	0.4828	0.544	0.576	0.587	0.5882
x1 = 0.3501	0.4754	0.5177	0.5789	0.6128	0.6219	0.6252
x1 = 0.3988	0.4967	0.5378	0.6006	0.6315	0.6429	0.6482
x1 = 0.4501	0.5096	0.5507	0.6128	0.6424	0.6539	0.6511
x1 = 0.5	0.5134	0.5557	0.6104	0.6415	0.6513	0.6487
x1 = 0.548	0.51	0.5511	0.6028	0.6322	0.6379	0.6322
x1 = 0.5984	0.5005	0.5337	0.582	0.6047	0.6121	0.6119
x1 = 0.6512	0.4742	0.5086	0.5495	0.5705	0.575	0.5693
x1 = 0.6965	0.4498	0.4763	0.51	0.5256	0.5313	0.5239
x1 = 0.749	0.4037	0.4264	0.4598	0.4627	0.4625	0.457
x1 = 0.7985	0.3516	0.3683	0.3896	0.397	0.3963	0.3922
x1 = 0.8502	0.282	0.2949	0.3109	0.3107	0.3162	0.306
x1 = 0.8981	0.203	0.213	0.226	0.216	0.232	0.224
x1 = 0.948	0.109	0.114	0.123	0.111	0.127	0.122

CCOC(=O)CC(=O)OCC [diethyl 1,3-propanedioate] + CCOC(C)=O
excess molar enthalpy [kcal/mol]
Details	288.19 K	298.15 K	313.15 K	328.15 K	338.15 K	348.15 K
x1 = 0.0504	-0.000239	-0.000478	-0.000956	-0.00143	-0.00167	-0.00239
x1 = 0.1008	-0.000239	-0.000717	-0.00143	-0.00239	-0.00335	-0.00406
x1 = 0.148	-0.000478	-0.000956	-0.00191	-0.00335	-0.0043	-0.0055
x1 = 0.2007	-0.000478	-0.0012	-0.00239	-0.00406	-0.00526	-0.00645
x1 = 0.2496	-0.000478	-0.00143	-0.00263	-0.00454	-0.00598	-0.00741
x1 = 0.2974	-0.000478	-0.00143	-0.00287	-0.00478	-0.00621	-0.00789
x1 = 0.3475	-0.000478	-0.00143	-0.00287	-0.00502	-0.00669	-0.00813
x1 = 0.4	-0.000478	-0.00143	-0.00287	-0.00502	-0.00669	-0.00837
x1 = 0.447	-0.000478	-0.00143	-0.00287	-0.00502	-0.00669	-0.00813
x1 = 0.5003	-0.000478	-0.0012	-0.00287	-0.00478	-0.00645	-0.00789
x1 = 0.5474	-0.000478	-0.0012	-0.00263	-0.00454	-0.00621	-0.00765
x1 = 0.601	-0.000239	-0.000956	-0.00239	-0.0043	-0.00574	-0.00717
x1 = 0.6476	-0.000239	-0.000956	-0.00215	-0.00406	-0.00526	-0.00645
x1 = 0.7009	-0.000239	-0.000717	-0.00191	-0.00359	-0.00454	-0.00574
x1 = 0.7514	0	-0.000717	-0.00167	-0.00311	-0.00406	-0.00502
x1 = 0.7986	0	-0.000478	-0.00143	-0.00239	-0.00335	-0.00406
x1 = 0.8476	0	-0.000239	-0.000956	-0.00191	-0.00239	-0.00311
x1 = 0.8985	0	0	-0.000717	-0.00143	-0.00167	-0.00215
x1 = 0.9513	0.000239	0.000239	-0.000239	-0.000717	-0.000717	-0.000956
